Conditions: Liquid, Ebulliometric method (Recirculating still)

O [water]
Conditions	vapor or sublimation pressure [kPa]
310.81 K	6.424
327.62 K	15.58
339.92 K	27.15
349.24 K	41.77
353.35 K	47.72
357.89 K	57.67
362.48 K	68.16
366.81 K	80.61
370.97 K	93.23
375.04 K	107.24
